Entries after “also recorded” stand apart in the source; their conditions may differ.
Columns and labels:
hiPSC-CMs [1] = conditions: carfilzomib; Forghani et al., 2021; cited from earlier work
hiPSC-CMs [2] = assay: Cell viability of hiPSC-CMs treated with carfilzomib with or without 4H10 (CellTiter-Blue); type: cell-based, human; conditions: carfilzomib 5 μM alone, 24 h, IMR-90 hiPSC-CMs, compared with DMSO
Procedure: Cell viability was analyzed after IMR-90 hiPSC-CMs were treated with carfilzomib (CFZ) with or without 4H10 for 24 hours. (n=5 cultures).
(§1) A human induced pluripotent cell line (hiPSC line IMR90™, WiCell Research Institute) was fed daily on Matrigel™-coated plates with a defined medium for hiPSC culture, mTeSR1 medium. For CM differentiation, hiPSCs were induced using a growth factor-driven differentiation protocol as reported in Jha et al. Efficient differentiation of cardiomyocytes from human pluripotent stem cells with growth factors. Methods Mol Biol, 2015, 1299, 115-131. On the day of induction (day 0), medium was replaced with RPMI 1640 medium supplemented with 2% B27 minus insulin (a cell culture supplement) containing 100 ng/ml activin A. After induction for 24 h, the medium was replaced with fresh RPMI supplemented with 2% B27 minus insulin containing 10 ng/ml BMP4. From day 4 of differentiation, the medium was replaced with RPMI supplemented with 2% B27. On day 5, the cells were dissociated and reseeded into AggreWell400™ plates to acquire cardiac spheres. After 24 h, the cardiac spheres formed were collected and transferred to low-adhesion dishes for suspension culture. The medium was changed every other day. Cardiac spheres typically started beating spontaneously by day 7 to 9.
Cardiomyocytes derived from human pluripotent stem cells (hiPSC-CMs) were provide a new platform for the studies of cancer drug-induced side effects and therapies. Using these cells, lead molecules were identified indicating protective properties on cardiomyocytes from the toxic effect of chemotherapy agents and ethanol (EtOH). […] Oxidative stress is a common molecular mechanism for cardiotoxicity induced by chemotherapy including proteosome inhibitors.
Consistently, treatment of hiPSC-CMs induced cell death and cytotoxicity. To examine if 4H10 could protect cardiomyocytes from carfilzomib-induced cytotoxicity, hiPSC-CMs were treated with carfilzomib at 5 μM alone or together with 4H10 at various concentrations for 24 h and then examined cell viability using the CellTiter-Blue Cell Viability Assay. Cells treated with DMSO (vehicle) were used as a control.

hiPSC-CMs [3] = assay: Effects of chemotherapeutic agents on function of hiPSC-CMs; type: cell-based, human; conditions: carfilzomib treatment
RPMI8226 cells = assay: Cell viability of RPMI8226 cells after carfilzomib with or without 4H10; type: cell-based; conditions: carfilzomib, 24 h, compared to DMSO
Procedure: (§2) (top) Proteasome activity of IMR-90 hiPSC-CMs was measured after the cells were treated with CFZ with or without 4H10 for 24 hours. (bottom, right, left) Proteasome activity and cell viability of RPMI8226 cells (cancer cells) were measured after the cells were treated with CFZ with or without 4H10 for 24 hours.
(§3) Experiments were designed to determine the effects of carfilzomib and 4H10 on proteasome activity and cell viability of RPMI8226 cell line, which has been investigated for the efficacy tests of carfilzomib in […].

proteasome [4] = assay: Proteasome activity in hiPSC-CMs after carfilzomib with or without 4H10; type: cell-based, human; conditions: carfilzomib, 24 h, IMR-90 hiPSC-CMs, compared with DMSO
Procedure: as §2
The proteasome, responsible for the regulated degradation of proteins, is a key cellular component targeted by carfilzomib as part of its mechanism of action in cancer therapy. Therefore, in addition to validation of cardioprotective effects of 4H10 on cell viability and mitochondrial function, it is crucial to examine if 4H10 compromises the proteasome inhibition efficacy of carfilzomib.

patients = conditions: among the proteosome inhibitors; cited from earlier work
hiPSC-CMs [5] = assay: Intracellular oxidative stress (ROS) of carfilzomib-treated hiPSC-CMs, DCFDA/H2DCFDA assay; type: cell-based, human; conditions: carfilzomib 5 μM alone, 24 h, SCVI hiPSC-CMs
Procedure: The quantification of oxidative stress was performed using DCFDA staining of SCVI hiPSC-CMs treated with Cfz with or without 4H10 for 24 hours.
The induction of oxidative stress is a crucial mechanism through which proteasome inhibitors induce apoptosis. To investigate if 4H10 could alleviate carfilzomib-induced increase of oxidative stress in cardiomyocytes, hiPSC-CMs were exposed to carfilzomib at 5 μM alone or together with 4H10 at various concentrations for 24 h. The production of cellular reactive oxygen species (ROS) was then measured using DCFDA/H2DCFDA assay kit.

[6] = carfilzomib, serum; read-out: maximum (or peak) serum concentration, Cmax; cited from earlier work
hiPSC-CMs [7] = assay: MitoTracker Red staining (mitochondrial content and activity) of carfilzomib-treated hiPSC-CMs, high-content imaging; type: cell-based, human; conditions: carfilzomib alone, 24 h, IMR-90 hiPSC-CMs
Procedure: MitoTracker™ Red staining was performed in IMR-90 hiPSC-CMs treated with CFZ with or without 4H10 for 24 hours.
as §1
Mitochondria play a crucial role in energy production, cellular metabolism, and the regulation of cell death. Experiments indicate carfilzomib induces mitochondrial dysfunction in hiPSC-CMs. To assess the potential mitigating effects of 4H10 on carfilzomib-induced mitochondrial dysfunction, hiPSC-CMs were treated with carfilzomib alone or co-treated with 4H10 at various concentrations. Mitochondria were then visualized using MitoTracker™ Red dyes, which can accumulate in active mitochondria and allow for the measurement of mitochondrial content and activity in live cells.

proteasome [8] = assay: Proteasome activity in RPMI8226 cells after carfilzomib with or without 4H10; type: cell-based; conditions: carfilzomib, 24 h, compared to DMSO
Procedure: as §2, §3

CC(C)C[C@H](NC(=O)[C@H](CCc1ccccc1)NC(=O)CN1CCOCC1)C(=O)N[C@@H](Cc1ccccc1)C(=O)N[C@@H](CC(C)C)C(=O)[C@@]1(C)CO1 [carfilzomib]
molecular and functional alterations of hiPSC-CMs (hiPSC-CMs [1]): causes molecular and functional alterations
cell viability (cytotoxicity) after carfilzomib (hiPSC-CMs [2]): caused cytotoxicity; also recorded: significant decrease in cell viability
Ca^2+ handling of hiPSC-CMs (hiPSC-CMs [3]): negatively affects
contractility of hiPSC-CMs (hiPSC-CMs [3]): negatively affects
mitochondrial function of hiPSC-CMs (hiPSC-CMs [3]): negatively affects
traction forces of hiPSC-CMs (hiPSC-CMs [3]): negatively affects
viability of RPMI8226 cells (RPMI8226 cells): significantly decreased the viability
cellular proteasome activity (proteasome [4]): significant decrease in cellular proteasome activity
cardiotoxicity in clinic (patients): highest cardiotoxicity in clinic
DCFDA fluorescence intensity (oxidative stress) (hiPSC-CMs [5]): significant increase in DCFDA fluorescence intensity
Cmax [6]: 5.88 µM
mitochondrial mass and activity (MitoTracker Red fluorescence intensity) (hiPSC-CMs [7]): reduction in mitochondrial mass and activity
proteasome activity in RPMI8226 cells (proteasome [8]): suppressed

Reference: patent publication US20260294845A1, “Uses of Adrenalone to Manage Cardiotoxicity or Cardiovascular Disorders” (Emory University, priority 2023, published 2026)
